We go through 24 compounds from patent US11649245B2, “Cyclopropylamine compound as LSD1 inhibitor and use thereof” (HELIOEAST PHARMACEUTICAL CO., LTD., priority 2018, dated 2023).

What is called IC50 is the concentration that inhibits the measured activity by half. As usually defined, the bioavailability is dose-corrected exposure relative to a reference, in per cent.

One series deals with human LSD1 (Homo sapiens, UniProt O60341). The series is described as follows: In vitro enzyme activity screening against LSD1 (HRP/Amplex Red fluorescence coupling enzyme method). The format is biochemical. The settings on record: human LSD1, histone H3K4me peptide substrate 20 μM. The procedure: The purpose of this test was to detect the in vitro inhibitory activity of the compounds against LSD1. The enzyme used in this test was human LSD1, the standard substrate was histone H3K4me peptide (20 μM), the fluorescence coupling enzyme method was used to determine the activity of the compound by combining horseradish peroxidase (HRP) and fluorescent reagent Amplex Red to detect the H2O2 generation as a result of the reaction of LSD1. Compounds were tested in 10-dose IC50 mode with a 3-fold serial dilution starting at 10 μM. The enzyme and […] to start the reaction. Fluorescence detector: Envision, excitation wavelength: Ex/Em=530/590 […]

The next series has as its system MV-4-11 cells. The series is described as follows: Antiproliferation activity on MV-4-11 cells (CellTiter-Glo, 6 days). Format: cell-based. The note with it: Homo sapiens, MV4-11, 144 h, incubated for 6 days. An excerpt: Experimental purpose: to detect the antiproliferation activity of the compound to be tested on MV-4-11 cells.
Experimental materials: IMDM culture medium, fetal bovine serum, penicillin/streptomycin antibiotics purchased from Wisent. CellTiter-Glo (chemiluminescent cell viability assay reagent) reagents purchased from Promega. MV-4-11 cell line was purchased from Nanjing Cobioer Co., Ltd. Nivo Multi-Marker Analyzer (PerkinElmer).
Experimental method: MV-4-11 cells were planted in a white 96-well plate, 80 μL of cell suspension per well, which contained 6000 MV-4-11 cells. The cell plate was placed in a carbon dioxide incubator for overnight culture.
The compounds to be tested were diluted 5-fold with a pipet until the 8th concentration, i.e., diluted from 2 mM to 25.6 nM, double duplicate well experiment was set. 78 μL of the culture medium was added to an intermediate plate, and then 2 μL per well of the serially diluted compounds were transferred to the corresponding positions on the intermediate plate, after mixing, 20 μL per well was transferred to the cell plate. The cell plate was incubated in a carbon dioxide incubator for 6 days. Another cell plate was prepared and the signal value on the day of dosing was read as the maximum value (Max value in the equation below) to participate in the data analysis. 25 μL of the chemiluminescent cell viability assay reagent was added to each well of this cell plate, which was incubated at room temperature for 10 minutes to stabilize the luminescence signal. The multi-label analyzer was used for reading.
(§1) Data analysis: the equation (Sample-Min)/(Max-Min)*100% was used to convert the original data into the inhibition rate, the IC50 value can be obtained by curve fitting of four-parameters (“log(inhibitor) vs. response—Variable slope” mode in GraphPad Prism)).

A further series concerns HL60 cells. Description: Antiproliferation activity on HL60 cells (CellTiter-Glo, 6 days). The format is cell-based. The note with it: Homo sapiens, HL-60, 144 h, incubated for 6 days.
Source text: Experimental purpose: to detect the antiproliferation activity of the compound to be tested on HL60 cells.
Experimental materials: RPMI-1640 culture medium, fetal bovine serum, penicillin/streptomycin antibiotics purchased from Wisent. CellTiter-Glo (chemiluminescent cell viability assay reagent) reagents purchased from Promega. HL60 cell line purchased from Nanjing Cobioer Co., Ltd. Nivo multi-label reader (PerkinElmer).
Experimental method: HL60 cells were planted in a white 384-well plate, 40 μL of cell suspension per well, 600 HL60 cells were contained therein. The cell plate was placed in a carbon dioxide incubator for overnight culture. The compounds to be tested were diluted 5-fold with a pipet until the 10th concentration, i.e., diluted from 2 mM to 1.024 nM, double duplicate well experiment was set. 78 μL of the culture medium was added to an intermediate plate, and then 2 μL per well of the serially diluted compounds were transferred to the corresponding positions on the intermediate plate, after mixing, 10 μL per well was transferred to the cell plate. The cell plate was incubated in a carbon dioxide incubator for 6 days. Another cell plate was prepared and the signal value on the day of dosing was read as the maximum value (Max value in the equation below) to participate in the data analysis. 20 μL of chemiluminescent cell viability assay reagent was added to each well of this cell plate, which was incubated at room temperature for 10 minutes to stabilize the luminescence signal. The multi-label reader was used for reading.
as §1
(ATP-based viability assays read luminescence as a measure of living cells.)

For the next series, the system named is NCI-H1417 cells. Description: Antiproliferation activity on NCI-H1417 cells (CellTiter-Glo, 10 days). The format is cell-based, human. The settings on record: Homo sapiens, NCI-H1417, 240 h, incubated for 10 days. On the procedure: Experimental purpose: to detect the antiproliferation activity of the compounds on NCI-H1417 cells.
Experimental materials: RPMI 1640 culture medium, fetal bovine serum, Promega CellTiter-Glo reagent. NCI-H1417 cell line purchased from ATCC. Envision multi-label reader (PerkinElmer).
Experimental method: the compounds were dissolved to 10 mM, then the compounds were diluted 5 times with DMSO in a compound plate, the compounds were diluted 3-fold with Bravo from a starting concentration of 2 mM to the 10th concentration, 250 nL of the solutions were transferred to the upper and lower duplicate wells on a blank 384 cell plate by Echo transfer plate, cell suspension of per well/1000 cells/50 μL was added to the transferred 250 nL DMSO/compound, the compounds were diluted 200-fold, i.e., the initial action concentration was 10 μM. The cell plate was placed in a carbon dioxide incubator and incubated for 10 days. 25 μL of Promega CellTiter-Glo reagent was added to each well on the cell plate and was shaken at room temperature for 10 minutes to stabilize the luminescence signal. Readings were performed by PerkinElmer Envision multi-label analyzer.
Data analysis: the equation (Max-Ratio)/(Max-Min)*100% was used to convert the original data into the inhibition rate, the value of IC50 can be obtained by curve fitting of four-parameters (the 205 mode in XLFITS, iDBS).

A short description of series [1]: In vivo pharmacokinetics in CD-1 mice. The settings on record: male, CD-1, mouse, plasma, male CD-1 mice; for half-life / clearance / Vd: iv, 1 mg/kg; for half-life: IV 1 mg/kg, read-out: Half-life T1/2 (IV) (converted); for clearance / Vd / Cmax: study doses 1 mg/kg intravenous, 2 mg/kg oral; for clearance: read-out: Clearance CL; for Vd: read-out: Volumes of distribution Vdss; for Cmax: route not given, read-out: Max concentration Cmax; for AUC(0-t) / bioavailability: po, 2 mg/kg; for AUC(0-t): PO 2 mg/kg, read-out: The area under the plasma concentration-time curve AUC0-last PO; for bioavailability: oral 2 mg/kg vs intravenous 1 mg/kg, read-out: Bioavailability F. The procedure: CD-1 mice (male, 7-9 weeks old, Shanghai Slac)
The rodent pharmacokinetic characteristics after intravenous injection and oral administration of the compounds were tested by standard protocols, in the experiment, the candidate compounds were formulated into clear solutions and administrated to mice via a single intravenous injection and oral administration. The vehicle for intravenous injection and oral administration was a mixed solution of 10% of dimethyl sulfoxide and 90% of 10% hydroxypropyl β cyclodextrin. This project used four male CD-1 mice, two mice were administered intravenously, with a dose of 1 mg/kg, and plasma samples were collected at 0 hour (before administration) and 0.0833, 0.25, 0.5, 1, 2, 4, 8, 24 hours after administration. The other two mice were orally administered by gavage, with a dose of 2 mg/kg, plasma samples were collected at 0 hour (before administration) and 0.25, 0.5, 1, 2, 4, 8, 24 hours after administration, whole blood samples were collected within 24 hours, which were centrifuged at 3000 g for 15 minutes, and the supernatants were separated to obtain plasma samples, 4 times volume of acetonitrile solutions containing internal standard were added to precipitate the protein, the mixtures were centrifuged to obtain the supernatants, the supernatants were added with water of equal volume and centrifuged again to take the supernatant for injection, and the blood drug concentration was quantitatively analyzed by the LC-MS/MS analysis method, and pharmacokinetic parameters were calculated, such as max concentration (Cmax), clearance (CL), half-life (T1/2), volumes of distribution (Vdss), the area under the plasma concentration-time curve (AUC0-last), bioavailability (F) etc.

Counter-ions that a name gives are not always drawn.

In the case of `O=C(O)c1ccc(N2CCC3(CC2)CC(N[C@@H]2C[C@H]2c2ccccc2)CO3)cc1` (some centres unmarked) [Hydrochloride of the compound 11], inhibition on human LSD1 was half-maximal at 2880 nM (IC50).

`FC(F)(F)c1ccc(CN2CCC3(CC2)CC(N[C@@H]2C[C@H]2c2ccccc2)CO3)cc1` (some centres unmarked) [Hydrochloride of the compound 10] yielded an IC50 on human LSD1 of 78.4 nM.

For `Clc1ccc(CN2CCC3(CC2)CC(N[C@@H]2C[C@H]2c2ccccc2)CO3)cc1` (some centres unmarked) [Hydrochloride of the compound 13], half-maximal inhibition against human LSD1 (IC50) was put at 46.6 nM.

Regarding `O=C(O)c1ccccc1CN1CCC2(CC1)CC(N[C@@H]1C[C@H]1c1ccccc1)CO2` (some centres unmarked) [Hydrochloride of the compound 7], 45.1 nM corresponded to half-maximal inhibition on human LSD1 (IC50). In the case of `O=C(O)C1(CN2CCC3(CC2)CC(N[C@@H]2C[C@H]2c2ccccc2)CO3)CC1` (some centres unmarked) [Hydrochloride of the compound 31], half-maximal inhibition at human LSD1 (IC50) was put at 2120 nM. In turn, `O=C(O)c1ccc(C(=O)N2CCC3(CC2)CC(N[C@@H]2C[C@H]2c2ccccc2)CO3)cc1` (some centres unmarked) [Hydrochloride of the compound 22] gave an IC50 on human LSD1 of 908 nM. Still for that read-out and setting: for `O=C(O)c1ccc(OC(=O)N2CCC3(CC2)CC(N[C@@H]2C[C@H]2c2ccccc2)CO3)cc1` (some centres unmarked) [Hydrochloride of the compound 25] the value was 1720 nM. The compound `O=C(O)C12CCC(CN3CCC4(CC3)CC(N[C@@H]3C[C@H]3c3ccccc3)CO4)(CC1)CC2` (some centres unmarked) [Hydrochloride of the compound 28] returned an IC50 at human LSD1 of 1460 nM. `O=C(O)c1cnc(CN2CCC3(CC2)CC(N[C@@H]2C[C@H]2c2ccccc2)CO3)cn1` (some centres unmarked) [Hydrochloride of the compound 18]: the values for the IC50 against human LSD1, in the series with MV-4-11 cells and in the series with HL60 cells were 92.9 nM, 16 nM and 20.4 nM, respectively.

Regarding `NC(=O)c1ccc(CN2CCC3(CC2)CC(N[C@@H]2C[C@H]2c2ccccc2)CO3)cc1` (some centres unmarked) [Hydrochloride of the compound 23], the IC50 at human LSD1 stood at 64.6 nM. The same compound registered an IC50 with NCI-H1417 cells of 1.68 nM. For the same compound, in series [1], the half-life was 4.32 h, the clearance was determined as 68.7 mL/min/kg, the Vd is 18.6 L/kg and the Cmax was 144 nM. For the same compound, in series [1], the AUC(0-t) amounted to 0.36 µM·h and the bioavailability was 37.2%.

On human LSD1, `COc1ccc(CN2CCC3(CC2)CC(N[C@@H]2C[C@H]2c2ccccc2)CO3)cc1` (some centres unmarked) [Hydrochloride of the compound 8] showed an IC50 of 39.7 nM.

For the compound `c1ccc([C@@H]2C[C@H]2NC2COC3(CCN(Cc4ccc(-c5nn[nH]n5)cc4)CC3)C2)cc1` (some centres unmarked) [Hydrochloride of the compound 24], the IC50 against human LSD1 was determined as 41.5 nM; in the series on MV-4-11 cells, 38.3 nM; in the series with HL60 cells, 39.1 nM. `O=C(O)c1ccc(CN2CCC3(CC2)CC(N[C@@H]2C[C@H]2c2ccccc2)CCO3)cc1` (some centres unmarked) [Hydrochloride of the compound 26]: the IC50 at human LSD1 was found to be 271 nM. Still for that read-out and setting: in the case of `O=C(O)C1CC(CN2CCC3(CC2)CC(N[C@@H]2C[C@H]2c2ccccc2)CO3)C1` (some centres unmarked) [Hydrochloride of the compound 29] it was 1670 nM. On the same count and under the same terms, for `c1ccc([C@@H]2C[C@H]2NC2COC3(CCN(CCc4nn[nH]n4)CC3)C2)cc1` (some centres unmarked) [Hydrochloride of the compound 33] the value was 48.2 nM; for `O=C(O)c1ccc(CN2CC3(CC(N[C@@H]4C[C@H]4c4ccccc4)CCO3)C2)cc1` (some centres unmarked) [Hydrochloride of the compound 4], 940 nM; for `O=C(O)c1cccc(CN2CCC3(CC2)CC(N[C@@H]2C[C@H]2c2ccccc2)CO3)c1` (some centres unmarked) [Hydrochloride of the compound 3], 96.7 nM. For `O=C(O)[C@H]1CC[C@H](CN2CCC3(CC2)CC(N[C@@H]2C[C@H]2c2ccccc2)CO3)CC1` (some centres unmarked) [Hydrochloride of the compound 27], the IC50 on human LSD1 was 1780 nM.

For the compound `O=C(O)c1ccc(CN2CCC3(CC2)OCC3N[C@@H]2C[C@H]2c2ccccc2)cc1` (some centres unmarked) [Hydrochloride of the compound 5], the IC50 on human LSD1 was found to be 3850 nM.

Consider `O=C(O)c1ccc(CN2CCC3(CC2)CC(N[C@@H]2C[C@H]2c2ccccc2)CO3)nc1` (some centres unmarked) [Hydrochloride of the compound 14], for which the IC50 against human LSD1 was 118 nM. Moreover, in series [1], the half-life was 0.874 h, the clearance was 16.9 mL/min/kg, the Vd was found to be 0.551 L/kg and the Cmax came out at 629 nM. In addition, in series [1], the AUC(0-t) is 1.38 µM·h and the bioavailability came out at 28.7%. `Fc1ccc(CN2CCC3(CC2)CC(N[C@@H]2C[C@H]2c2ccccc2)CO3)cc1` (some centres unmarked) [Hydrochloride of the compound 9] registered an IC50 on human LSD1 of 37.8 nM. On the same count and under the same terms, in the case of `O=C(O)Cc1ccc(N2CCC3(CC2)CC(N[C@@H]2C[C@H]2c2ccccc2)CO3)cc1` (some centres unmarked) [Hydrochloride of the compound 12] it was 1380 nM. As for `O=C(O)c1ccc(NC(=O)N2CCC3(CC2)CC(N[C@@H]2C[C@H]2c2ccccc2)CO3)cc1` (some centres unmarked) [Hydrochloride of the compound 1], the IC50 against human LSD1 turned out to be 1690 nM. The same measure, in the same setting: in the case of `O=C(O)c1ccc(CN2CC3(CC(N[C@@H]4C[C@H]4c4ccccc4)CO3)C2)cc1` (some centres unmarked) [Hydrochloride of the compound 2] it was 1580 nM.
